Holding throughout (assay type): functional
In experiment [1] the test system is Staphylococcus aureus. Kind of experiment: Antibacterial activity against methicillin-resistant Staphylococcus aureus after overnight incubation by micro broth dilution analysis. For orientation: Broth dilution looks for growth in wells or tubes with falling amounts of substance.
The test system of experiment [2] is Staphylococcus aureus. Nature of the experiment: Antibacterial activity against methicillin-resistant Staphylococcus aureus assessed as zone of inhibition at 50 ug/mL after 24 hrs by agar disc diffusion method. Particulars: read-out: IZ. On the technique in general: In agar diffusion tests the substance spreads into inoculated agar from a disc or well.
In experiment [3] the test system is Staphylococcus epidermidis. Kind of experiment: Antibacterial activity against methicillin-resistant Staphylococcus epidermidis after overnight incubation by micro broth dilution analysis.
Experiment [4] concerns Staphylococcus haemolyticus. Kind of experiment: Antibacterial activity against methicillin-resistant Staphylococcus haemolyticus assessed as zone of inhibition at 50 ug/mL after 24 hrs by agar disc diffusion method. Conditions: read-out: IZ.
The test system of experiment [5] is Staphylococcus epidermidis. Kind of experiment: Antibacterial activity against methicillin-resistant Staphylococcus epidermidis assessed as zone of inhibition at 20 ug/mL after 24 hrs by agar disc diffusion method. Conditions: read-out: IZ.
Experiment [6] deals with Staphylococcus haemolyticus. Nature of the experiment: Antibacterial activity against methicillin-resistant Staphylococcus haemolyticus after overnight incubation by micro broth dilution analysis.

In brackets after ≈: the same amount, converted by molar mass.

By MIC99 is commonly meant an inhibitory concentration at the 99% level, which refers to growth in some studies and to a panel of isolates in others. A high value points to lower susceptibility. With `Cc1ccc(S(=O)(=O)n2ccc3cc(/C=C/S(=O)(=O)F)ccc32)cc1`, the MIC99 turned out to be 60.6 µg/mL (≈ 160 µM) in experiment [1], 66 µg/mL (≈ 174 µM) in experiment [3] and 61 µg/mL (≈ 161 µM) in experiment [6]. Besides, the zone of inhibition at 50 µg/mL is 4.2 mm in experiment [2] and 3.5 mm in experiment [4]. Moreover, the zone of inhibition at 20 µg/mL in experiment [5] turned out to be 4.3 mm.
Regarding `O=Cc1ccc(/C=C/S(=O)(=O)F)cc1`, the MIC99 in experiment [1] worked out at 45.6 µg/mL (≈ 213 µM); in experiment [3], 48.2 µg/mL (≈ 225 µM); in experiment [6] it was 60.1 µg/mL (≈ 281 µM). Also, the zone of inhibition at 50 µg/mL in experiment [2] turned out to be 6 mm; in experiment [4], 5.2 mm. Also, in experiment [5], the zone of inhibition at 20 µg/mL turned out to be 4.3 mm.
With `O=S(=O)(F)/C=C/c1ccc2ccccc2c1`, the MIC99 in experiment [1] worked out at 47 µg/mL (≈ 199 µM); in experiment [3], 43.1 µg/mL (≈ 183 µM); in experiment [6] it was 65.5 µg/mL (≈ 277 µM). Moreover, the results for the zone of inhibition at 50 µg/mL in experiment [2] and in experiment [4] were 7.2 mm and 3.5 mm, respectively. Moreover, the zone of inhibition at 20 µg/mL in experiment [5] worked out at 4.4 mm.
Turning to `O=S(=O)(F)/C=C/c1coc2ccccc12`, the MIC99 in experiment [1] came to 45 µg/mL (≈ 199 µM); in experiment [3], 52.1 µg/mL (≈ 231 µM); in experiment [6] it was 51 µg/mL (≈ 225 µM). In addition, the zone of inhibition at 50 µg/mL is 6.2 mm in experiment [2] and 3.5 mm in experiment [4]. The zone of inhibition at 20 µg/mL in experiment [5] is 6.4 mm.
In the case of `O=S(=O)(F)/C=C/c1cccs1`, the values for the MIC99 in experiment [1], in experiment [3] and in experiment [6] were 52 µg/mL (≈ 271 µM), 50.1 µg/mL (≈ 260 µM) and 50.6 µg/mL (≈ 263 µM), respectively. The zone of inhibition at 50 µg/mL in experiment [2] was found to be 5.2 mm; in experiment [4], 4.1 mm. Moreover, the zone of inhibition at 20 µg/mL in experiment [5] was 4.5 mm.
Consider `Cc1ccc(S(=O)(=O)n2c3ccccc3c3cc(/C=C/S(=O)(=O)F)ccc32)cc1`, for which the MIC99 in experiment [1] was found to be 48 µg/mL (≈ 112 µM); in experiment [3], 50.1 µg/mL (≈ 117 µM); in experiment [6] it was 58 µg/mL (≈ 135 µM). Besides, the zone of inhibition at 50 µg/mL in experiment [2] worked out at 4.3 mm; in experiment [4], 3.3 mm. Moreover, in experiment [5], the zone of inhibition at 20 µg/mL worked out at 3.5 mm.
Consider `O=S(=O)(F)/C=C/C=C/c1ccc(/C=C/S(=O)(=O)F)cc1`, for which the MIC99 in experiment [1] turned out to be 66.8 µg/mL (≈ 209 µM); in experiment [3] it was 56 µg/mL (≈ 175 µM); in experiment [6], 55 µg/mL (≈ 172 µM). The zone of inhibition at 50 µg/mL in experiment [2] came to 5.3 mm; in experiment [4] it was 3.5 mm. In experiment [5], the zone of inhibition at 20 µg/mL was 4.2 mm.
Consider `CCOC(=O)c1ccc(/C=C/S(=O)(=O)F)cc1`, for which the MIC99 was determined as 41.1 µg/mL (≈ 159 µM) in experiment [1], 56.1 µg/mL (≈ 217 µM) in experiment [3] and 67.3 µg/mL (≈ 261 µM) in experiment [6]. Besides, the results for the zone of inhibition at 50 µg/mL in experiment [2] and in experiment [4] were 6.1 mm and 4.2 mm, respectively. In experiment [5], the zone of inhibition at 20 µg/mL came out at 5.5 mm.
As for `O=S(=O)(F)/C=C/C=C/c1ccccc1`, the MIC99 in experiment [1] is 56.2 µg/mL (≈ 265 µM); in experiment [3] it was 52 µg/mL (≈ 245 µM); in experiment [6] it was 58.1 µg/mL (≈ 274 µM). The zone of inhibition at 50 µg/mL in experiment [2] is 6.2 mm; in experiment [4], 5.2 mm. In addition, in experiment [5], the zone of inhibition at 20 µg/mL is 6.2 mm.
Turning to `CCc1ccc(/C=C/S(=O)(=O)F)cc1`, the MIC99 in experiment [1] turned out to be 45.1 µg/mL (≈ 211 µM); in experiment [3], 56.2 µg/mL (≈ 262 µM); in experiment [6], 60 µg/mL (≈ 280 µM). Also, the zone of inhibition at 50 µg/mL in experiment [2] stood at 5.1 mm; in experiment [4], 3.5 mm. Also, the zone of inhibition at 20 µg/mL in experiment [5] stood at 6.1 mm.
For the molecule `Cc1ccc(S(=O)(=O)n2cc(/C=C/S(=O)(=O)F)c3ccccc32)cc1`, the results for the MIC99 in experiment [1], in experiment [3] and in experiment [6] were 47.1 µg/mL (≈ 124 µM), 51.2 µg/mL (≈ 135 µM) and 58 µg/mL (≈ 153 µM), respectively. Besides, the figures for the zone of inhibition at 50 µg/mL in experiment [2] and in experiment [4] were 5.1 mm and 4.2 mm, respectively. For the same molecule, the zone of inhibition at 20 µg/mL in experiment [5] was determined as 4.1 mm.
Regarding `O=S(=O)(F)/C=C/c1ccc(I)cc1`, the MIC99 worked out at 48.2 µg/mL (≈ 154 µM) in experiment [1], 50.6 µg/mL (≈ 162 µM) in experiment [3] and 47.6 µg/mL (≈ 153 µM) in experiment [6]. Further, the zone of inhibition at 50 µg/mL in experiment [2] turned out to be 5.2 mm; in experiment [4] it was 4.4 mm. For the same molecule, the zone of inhibition at 20 µg/mL in experiment [5] worked out at 5.2 mm.
For the molecule `O=C(O)c1ccc(/C=C/S(=O)(=O)F)cc1`, the MIC99 in experiment [1] was found to be 55.3 µg/mL (≈ 240 µM); in experiment [3] it was 50.1 µg/mL (≈ 217 µM); in experiment [6] it was 43.3 µg/mL (≈ 188 µM). Moreover, the results for the zone of inhibition at 50 µg/mL in experiment [2] and in experiment [4] were 7.2 mm and 3.3 mm, respectively. In addition, the zone of inhibition at 20 µg/mL in experiment [5] is 6.5 mm.
With `O=S(=O)(F)/C=C/C=C/c1ccccc1C(F)(F)F`, the MIC99 amounted to 55.1 µg/mL (≈ 197 µM) in experiment [1], 52.6 µg/mL (≈ 188 µM) in experiment [3] and 55.1 µg/mL (≈ 197 µM) in experiment [6]. Moreover, the zone of inhibition at 50 µg/mL in experiment [2] amounted to 4.1 mm; in experiment [4], 4.3 mm. In addition, the zone of inhibition at 20 µg/mL in experiment [5] stood at 4.1 mm.
`O=S(=O)(F)/C=C/c1cccc2c1oc1ccccc12`: the MIC99 turned out to be 17 µg/mL (≈ 61.6 µM) in experiment [1], 67.5 µg/mL (≈ 244 µM) in experiment [3] and 47 µg/mL (≈ 170 µM) in experiment [6]. The zone of inhibition at 50 µg/mL in experiment [2] was 6.3 mm; in experiment [4] it was 3.3 mm. Besides, in experiment [5], the zone of inhibition at 20 µg/mL was 3.5 mm.
Turning to `O=S(=O)(F)/C=C/c1cnn(-c2ccccc2)c1`, the MIC99 was 51.2 µg/mL (≈ 203 µM) in experiment [1], 52.3 µg/mL (≈ 207 µM) in experiment [3] and 51.1 µg/mL (≈ 203 µM) in experiment [6]. Besides, the zone of inhibition at 50 µg/mL in experiment [2] worked out at 3.1 mm; in experiment [4], 3.5 mm. The zone of inhibition at 20 µg/mL in experiment [5] came out at 4.3 mm.
Regarding `O=S(=O)(F)/C=C/c1ccc(-c2ccccc2)cc1`, the MIC99 came out at 53.2 µg/mL (≈ 203 µM) in experiment [1], 65.1 µg/mL (≈ 248 µM) in experiment [3] and 56.1 µg/mL (≈ 214 µM) in experiment [6]. In addition, the results for the zone of inhibition at 50 µg/mL in experiment [2] and in experiment [4] were 4.3 mm and 3.5 mm, respectively. For the same molecule, in experiment [5], the zone of inhibition at 20 µg/mL came to 5.1 mm.
For `CCOC(=O)c1cccc(/C=C/S(=O)(=O)F)c1`, the MIC99 is 40.6 µg/mL (≈ 157 µM) in experiment [1], 53 µg/mL (≈ 205 µM) in experiment [3] and 50.2 µg/mL (≈ 194 µM) in experiment [6]. Moreover, the zone of inhibition at 50 µg/mL in experiment [2] was determined as 4.2 mm; in experiment [4] it was 4.3 mm. Moreover, the zone of inhibition at 20 µg/mL in experiment [5] is 4.2 mm.
Turning to `O=S(=O)(F)/C=C/C=C/c1ccc(Br)cc1`, the MIC99 worked out at 51.1 µg/mL (≈ 176 µM) in experiment [1], 57 µg/mL (≈ 196 µM) in experiment [3] and 70 µg/mL (≈ 241 µM) in experiment [6]. For the same molecule, the zone of inhibition at 50 µg/mL in experiment [2] and in experiment [4] was 4.5 mm each time. Besides, in experiment [5], the zone of inhibition at 20 µg/mL is 5.4 mm.
On to `O=Cc1ccc(/C=C/S(=O)(=O)F)o1`, for which the MIC99 was 0.845 µg/mL (≈ 4.14 µM) in experiment [1], 61 µg/mL (≈ 299 µM) in experiment [3] and 55.1 µg/mL (≈ 270 µM) in experiment [6]. The zone of inhibition at 50 µg/mL in experiment [2] was 7.2 mm; in experiment [4] it was 4.5 mm. The zone of inhibition at 20 µg/mL in experiment [5] was found to be 7.4 mm.
As to `Cc1ccc(/C=C/C=C/S(=O)(=O)F)cc1`, the MIC99 turned out to be 60.6 µg/mL (≈ 268 µM) in experiment [1], 57 µg/mL (≈ 252 µM) in experiment [3] and 51 µg/mL (≈ 225 µM) in experiment [6]. The zone of inhibition at 50 µg/mL in experiment [2] turned out to be 4.1 mm; in experiment [4] it was 4.3 mm. In experiment [5], the zone of inhibition at 20 µg/mL worked out at 4.1 mm.
In the case of `O=S(=O)(F)/C=C/c1cccc(/C=C/S(=O)(=O)F)c1`, the values for the MIC99 in experiment [1], in experiment [3] and in experiment [6] were 44.1 µg/mL (≈ 150 µM), 41.2 µg/mL (≈ 140 µM) and 50 µg/mL (≈ 170 µM), respectively. In addition, the zone of inhibition at 50 µg/mL in experiment [2] was 4.2 mm; in experiment [4], 4.4 mm. Further, the zone of inhibition at 20 µg/mL in experiment [5] stood at 6.5 mm.
As to `O=S(=O)(F)/C=C/C=C/c1ccc(C(F)(F)F)cc1`, the MIC99 came to 59.1 µg/mL (≈ 211 µM) in experiment [1], 55.2 µg/mL (≈ 197 µM) in experiment [3] and 67 µg/mL (≈ 239 µM) in experiment [6]. Moreover, the zone of inhibition at 50 µg/mL in experiment [2] came to 5.1 mm; in experiment [4], 4.5 mm. For the same molecule, the zone of inhibition at 20 µg/mL in experiment [5] came out at 6.5 mm.

The values are drawn from ChEMBL document CHEMBL4382233, “Discovery of novel arylethenesulfonyl fluorides as potential candidates against methicillin-resistant of Staphylococcus aureus (MRSA) for overcoming multidrug resistance of bacterial infections” (2019).
